The results in this text go back to US11512097B2, “Heterocyclic compounds as Delta-5 desaturase inhibitors and methods of use” (Amgen Inc., priority 2019, dated 2022).

SMILES strings stand for the structures. pIC50: −log10 of the molar value.

The assay deals with T1, Delta-5-Desaturase (D5D), membrane preparations of D5D-overexpressing HEK293 6E cells (Homo sapiens, UniProt O60427).
T1 construct: expressed in transfected cells; host or cells: HEK293 6E cells (membrane preparation)
T1 sequence (O60427 whole entry, species assumed): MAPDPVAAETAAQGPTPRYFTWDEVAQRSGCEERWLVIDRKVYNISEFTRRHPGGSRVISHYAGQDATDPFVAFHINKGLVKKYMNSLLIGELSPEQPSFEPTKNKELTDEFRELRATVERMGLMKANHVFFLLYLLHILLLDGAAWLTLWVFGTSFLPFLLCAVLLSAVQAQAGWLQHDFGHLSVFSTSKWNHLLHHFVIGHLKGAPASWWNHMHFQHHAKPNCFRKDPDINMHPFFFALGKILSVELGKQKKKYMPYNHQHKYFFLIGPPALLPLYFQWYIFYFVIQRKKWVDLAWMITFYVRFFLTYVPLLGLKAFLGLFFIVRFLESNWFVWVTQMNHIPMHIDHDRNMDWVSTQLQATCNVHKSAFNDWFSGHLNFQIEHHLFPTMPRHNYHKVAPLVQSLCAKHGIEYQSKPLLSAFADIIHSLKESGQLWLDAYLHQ
The experiment in a line: In vitro measurement of Delta-5-Desaturase inhibitory activity using DGLA-CoA and Arachidonyl-CoA mass spectrometric assays. It is filed as biochemical. To be noted: D5D membrane 10 μg/mL, one-hour incubation, average of at least two independent runs. Here is the method:
In Vitro Measurement of Delta-5-Desaturase Inhibitory Activity Using DGLA-CoA and Arachidonyl-CoA Mass Spectrometric Assays Membrane preparations of D5D-overexpressing HEK293 6E cells were prepared in which the total protein concentration was 5.6 mg/mL. Stock D5D membrane preparations were diluted in D5D assay buffer (25 mM 2-amino-2-(hydroxymethyl)-1,3-propanediol, pH 7.5 containing 10 mM MgCl2, 1 mM octyl glucoside (SigmaAldrich O-8001), 1 mM tris(2-carboxyethyl)phosphine hydrochloride (SigmaAldrich 646547)) to a final D5D membrane concentration of 10 μg/mL in an assay plate containing serially diluted test compounds. To 15 μL of this D5D preparation was added 15 μL of a substrate solution (0.25 mM NADH (nicotinamide adenine dinucleotide, Roche Diag. 10107735001), 0.25 mM adenosine triphosphate (SigmaAldrich A-3377), 0.05 mM coenzyme A hydrate (SigmaAldrich C-4282), and 0.01 mM DGLA (dihomo-g-linolenic acid, Sigma E-4504) in the same D5D assay buffer. After one-hour incubation at ambient temperature acetonitrile (30 μL) was added to quench the reaction and plates were centrifuged for 10 min @ 3,000 rpm. Mass spectrometric analysis involved a Rapidfire 360 SPE system coupled to an ABSciex API4000 Triple Quadrupole mass spectrometer using a C18 SPE cartridge (G9203-80105) with ionization in negative mode (solvent A=100% water; solvent B=100% acetonitrile, each solvent containing 5 mM ammonium acetate). DGLA-CoA and Arachidonyl-CoA were detected by multiple reaction monitoring (MRM) of the doubly charged parent ions at m/z 526.6 and 525.6, respectively. […] Sx is value from unknown sample, So is value from DMSO alone and Sc is value from no enzyme well. For CRC analysis, the % of inhibitions were analysed with 4 Parameter Logistic Model or Sigmoidal Dose-Response Model using XLfit (IDBS, Guilford, UK). The potency of the test item was expressed as IC50 nM, corresponding to the test item concentration able to inhibit the 50% of the enzyme maximal response. IC50 values were averaged values determined by at least two independent runs. The results presented in Table 15 have been generated with the in vitro assay described above. This assay may be used to test any of the compounds described herein to assess and characterize a compound's ability to inhibit D5D.
For orientation: pIC50 means −log10 of the IC50, conventionally taken in molar units. A lower pIC50 goes with a large IC50. For the compound `Cc1cn2c(=O)c(-c3cnn(CC(F)(F)C(F)(F)F)c3)c(C(F)(F)F)nc2n1-c1cnccn1` [Example 95, 2-methyl-6-[1-(2,2,3,3,3-pentafluoropropyl)-1H-pyrazol-4-yl]-1-(pyrazin-2-yl)-7-(trifluoromethyl)-1H,5H-imidazo[1,2-a]pyrimidin-5-one], the pIC50 is 6.61.
`Cc1cn2c(=O)c(-c3cnn(CCC(F)(F)F)c3)c(C(F)(F)F)nc2n1CC1CC1(F)F` (stereo not drawn) [Example 81, 1-[(2,2-difluorocyclopropyl)methyl]-2-methyl-7-(trifluoromethyl)-6-[1-(3,3,3-trifluoropropyl)-1H-pyrazol-4-yl]-1H,5H-imidazo[1,2-a]pyrimidin-5-one] had a pIC50 of 6.98.
Consider `CC(C)N1C(=O)Cn2c1nc(C(F)(F)F)c(-c1cnn(CC(F)(F)C(F)(F)F)c1)c2=O` [Example 35, 6-[1-(2,2,3,3,3-pentafluoropropyl)-1H-pyrazol-4-yl]-1-(propan-2-yl)-7-(trifluoromethyl)-1H,2H,3H,5H-imidazo[1,2-a]pyrimidine-2,5-dione], for which the pIC50 is 6.93.
Regarding `Cc1cn2c(=S)c(-c3cnn(CC(F)(F)C(F)(F)F)c3)c(C(F)(F)F)nc2n1C` [Example 92, 1,2-dimethyl-6-[1-(2,2,3,3,3-pentafluoropropyl)-1H-pyrazol-4-yl]-7-(trifluoromethyl)-1H,5H-imidazo[1,2-a]pyrimidine-5-thione], the pIC50 was 6.88.
In turn, `O=c1c(-c2cnn(CC(F)(F)C(F)(F)F)c2)c(C(F)(F)F)nc2n1CCC2` [Example 19, 3-[1-(2,2,3,3,3-pentafluoropropyl)-1H-pyrazol-4-yl]-2-(trifluoromethyl)-4H,6H,7H,8H-pyrrolo[1,2-a]pyrimidin-4-one] gave a pIC50 of 7.33.
`Cc1cn2c(=O)c(-c3cnn(CC(F)(F)C(F)(F)F)c3)c(C(F)(F)F)nc2n1-c1ccncc1` [Example 102, 2-methyl-6-[1-(2,2,3,3,3-pentafluoropropyl)-1H-pyrazol-4-yl]-1-(pyridin-4-yl)-7-(trifluoromethyl)-1H,5H-imidazo[1,2-a]pyrimidin-5-one] had a pIC50 of 5.08.
The compound `Cc1nn2c(=O)c(-c3cnn(CC4CC(F)(F)C4)c3)c(C(F)(F)F)nc2s1` [Example 26, 6-{1-[(3,3-difluorocyclobutyl)methyl]-1H-pyrazol-4-yl}-2-methyl-7-(trifluoromethyl)-5H-[1,3,4]thiadiazolo[3,2-a]pyrimidin-5-one] had a pIC50 of 6.98.
Then `Cc1cn2c(=O)c(-c3cnn(CCC(F)(F)F)c3)c(C(F)(F)F)nc2[nH]1` [Example 74, 2-methyl-7-(trifluoromethyl)-6-[1-(3,3,3-trifluoropropyl)-1H-pyrazol-4-yl]-1H,5H-imidazo[1,2-a]pyrimidin-5-one], with 8.33.
`Cc1cn2c(=O)c(-c3cnn(CC(F)(F)C(F)(F)F)c3)c(C(F)(F)F)nc2n1-c1cccc(Cl)n1` [Example 101, 1-(6-chloropyridin-2-yl)-2-methyl-6-[1-(2,2,3,3,3-pentafluoropropyl)-1H-pyrazol-4-yl]-7-(trifluoromethyl)-1H,5H-imidazo[1,2-a]pyrimidin-5-one]: the pIC50 was 6.40.
Then `Cc1cn2c(=O)c(-c3ccn(CC(F)(F)C(F)(F)F)n3)c(C(F)(F)F)nc2n1C` [Example 70, 1,2-dimethyl-6-[1-(2,2,3,3,3-pentafluoropropyl)-1H-pyrazol-3-yl]-7-(trifluoromethyl)-1H,5H-imidazo[1,2-a]pyrimidin-5-one], with 5.29; and `Cc1cn2c(=O)c(-c3cnn(C[C@H]4CC4(F)F)c3)c(C(F)(F)F)nc2n1C` (single isomer, unassigned) [Example 109], with 7.54; and `Cc1nn2c(=O)c(-c3cnn(CC(F)(F)C(F)(F)F)c3)c(C(F)(F)F)nc2n1C` [Example 13, 2,3-dimethyl-6-[1-(2,2,3,3,3-pentafluoropropyl)-1H-pyrazol-4-yl]-5-(trifluoromethyl)-3H,7H-[1,2,4]triazolo[1,5-a]pyrimidin-7-one], with 6.60.
The compound `O=C1Cn2c(nc(C(F)(F)F)c(-c3cnn(CC(F)(F)C(F)(F)F)c3)c2=O)N1` [Example 47, 6-[1-(2,2,3,3,3-pentafluoropropyl)-1H-pyrazol-4-yl]-7-(trifluoromethyl)-1H,2H,3H,5H-imidazo[1,2-a]pyrimidine-2,5-dione] gave a pIC50 of 5.31.
The figure for `Cc1cn2c(=O)c(-c3cnn(CCC(F)(F)F)c3)c(C(F)(F)F)nc2n1CCO` [Example 83, 1-(2-hydroxyethyl)-2-methyl-7-(trifluoromethyl)-6-[1-(3,3,3-trifluoropropyl)-1H-pyrazol-4-yl]-1H,5H-imidazo[1,2-a]pyrimidin-5-one] is 7.94; for `Cn1c(C2CC2)cn2c(=O)c(-c3cnn(CC(F)(F)C(F)(F)F)c3)c(C(F)(F)F)nc12` [Example 50, 2-cyclopropyl-1-methyl-6-[1-(2,2,3,3,3-pentafluoropropyl)-1H-pyrazol-4-yl]-7-(trifluoromethyl)-1H,5H-imidazo[1,2-a]pyrimidin-5-one] it is 6.92.
On to `Cc1cn2c(=O)c(-c3cnn(C[C@H]4CC4(F)F)c3)c(C(F)(F)F)nc2[nH]1` (single isomer, unassigned) [Example 107], for which the pIC50 was 7.90.
As for `Cc1cn2c(=O)c(-c3cnn(CCC(F)(F)F)c3)c(C(F)(F)F)nc2n1C[C@@H]1CC1(F)F` (single isomer, unassigned) [Example 115], the pIC50 is 7.41.
`Cc1nn2c(=O)c(-c3cnn(C[C@H]4CC4(F)F)c3)c(C(F)(F)F)nc2s1` (single isomer, unassigned) [Example 111] showed a pIC50 of 6.34.
Take `Cc1cn2c(=O)c(-c3cnn(CC4CC(F)(F)C4)c3)c(C(F)(F)F)nc2n1C` [Example 60, 6-{1-[(3,3-difluorocyclobutyl)methyl]-1H-pyrazol-4-yl}-1,2-dimethyl-7-(trifluoromethyl)-1H,5H-imidazo[1,2-a]pyrimidin-5-one]: the pIC50 was 7.24.
Turning to `[2H]C([2H])([2H])n1c(C)cn2c(=O)c(-c3cnn(CC(F)(F)C(F)(F)F)c3)c(C(F)(F)F)nc12` [Example 77, 1-(2H3)methyl-2-methyl-6-[1-(2,2,3,3,3-pentafluoropropyl)-1H-pyrazol-4-yl]-7-(trifluoromethyl)-1H,5H-imidazo[1,2-a]pyrimidin-5-one], the pIC50 is 7.62.
Then `O=c1c(-c2ccc(OCC(F)(F)F)cc2)c(C(F)(F)F)nc2sc(CO)cn12` [Example 33, 2-(hydroxymethyl)-6-[4-(2,2,2-trifluoroethoxy)phenyl]-7-(trifluoromethyl)-5H-[1,3]thiazolo[3,2-a]pyrimidin-5-one], with 9.05; and `CN1C(=O)Cn2c1nc(C(F)(F)F)c(-c1cnn(CC(F)(F)C(F)(F)F)c1)c2=O` [Example 3, 1-methyl-6-[1-(2,2,3,3,3-pentafluoropropyl)-1H-pyrazol-4-yl]-7-(trifluoromethyl)-1H,2H,3H,5H-imidazo[1,2-a]pyrimidine-2,5-dione], with 7.59; and `Cc1cn2c(=O)c(-c3cnn(CC(F)(F)C(F)(F)F)c3)c(C(F)(F)F)nc2[nH]1` [Example 73, 2-methyl-6-[1-(2,2,3,3,3-pentafluoropropyl)-1H-pyrazol-4-yl]-7-(trifluoromethyl)-1H,5H-imidazo[1,2-a]pyrimidin-5-one], with 7.45.
In turn, `COCc1nn2c(=O)c(-c3cnn(CCC(F)(F)F)c3)c(C(F)(F)F)nc2s1` [Example 10, 2-(methoxymethyl)-7-(trifluoromethyl)-6-[1-(3,3,3-trifluoropropyl)-1H-pyrazol-4-yl]-5H-[1,3,4]thiadiazolo[3,2-a]pyrimidin-5-one] had a pIC50 of 7.56.
Then `Cn1cc(Cl)n2c(=O)c(-c3cnn(CC(F)(F)C(F)(F)F)c3)c(C(F)(F)F)nc12` [Example 44, 3-chloro-1-methyl-6-[1-(2,2,3,3,3-pentafluoropropyl)-1H-pyrazol-4-yl]-7-(trifluoromethyl)-1H,5H-imidazo[1,2-a]pyrimidin-5-one], with 5.49; and `Cc1cn2c(=O)c(-c3cnn(CC(F)(F)C(F)(F)F)c3)c(C(F)(F)F)nc2n1-c1cncnc1` [Example 99, 2-methyl-6-[1-(2,2,3,3,3-pentafluoropropyl)-1H-pyrazol-4-yl]-1-(pyrimidin-5-yl)-7-(trifluoromethyl)-1H,5H-imidazo[1,2-a]pyrimidin-5-one], with 4.44; and `Cc1cn2c(=O)c(-c3cnn(CC(F)(F)C(F)(F)F)c3)c(C(F)(F)F)nc2o1` [Example 39, 2-methyl-6-[1-(2,2,3,3,3-pentafluoropropyl)-1H-pyrazol-4-yl]-7-(trifluoromethyl)-5H-[1,3]oxazolo[3,2-a]pyrimidin-5-one], with 7.73.
